We go through five molecules from patent US20130079345A1, “[…] ACTIVE DISUBSTITUTED TRIAZINE DERIVATIVES” (BAYER INTELLECTUAL PROPERTY GMBH, priority 2010, published 2013).

Counter-ions that a name gives are not always drawn.

One assay concerns the target T1, CDK6/CyclinD3 (Homo sapiens, UniProt Q00534).
T1 construct: purchased Carna
Description: Lance Ultra KinaSelect Assay, CDK6. The class given is biochemical. As to conditions: read-out: Inhibition (IC50) CDK6. The method, then: (§1) This protocol describes how the Lance Ultra KinaSelect Assay was performed to determine half maximal inhibitory concentration (IC50) of compounds of general formula (I) and CDK/Cyclin complexes. The principle behind this enzymatic assay is based upon the phosphorylation of the ULight-Peptide Substrat. It is detected by using a specific EU-labeled anti-phospho peptide antibody. The binding of the Eu-labeled anti-phospho peptide antibody to the phosphorylated U Light labeled peptide gives rise to a FRET-signal. Binding of an inhibitor to the kinase prevents phosphorylation of the ULight-MBP Substrat, resulting in a loss of FRET.
(§2) The compounds of general formula (I) summarized in Table 5 were diluted from a 10 mM DMSO stock solution 1:10 in a total volume of 15 μL DMSO. This compound predilution was then serial diluted 1:3 over 8 steps in DMSO and briefly spun down. Each compound solution was now diluted 1:20 in Enzymatic Buffer (HEPES: 50 mM, pH: 7.5; MgCl2: 10 mM; EGTA: 1 mM; DTT: 2 mM; Tween-20: 0.01%), mixed thoroughly and spun down. For every sample, 2 μL of the diluted compound were mixed with 6 μL CDK/Cyclin/Substrat solution and […] in a well of a small volume 384 well plate (Corning Incorporated, Corning, N.Y., USA; order no. 3673). […] For positive controls, in each well 2 μL of DMSO solution (1% final DMSO assay concentration) was mixed with 6 μL CDK/Cyclin/Substrat (appropriate final concentration see Table 3) and 2 μL Tracer ATP solution (appropriate final concentration see Table 3). Positive and negative controls were calculated from at least 8 different sample wells. The 384 well plates were mixed in a Teleshaker plate mixer (Beckman Coulter, Brea, Calif., USA) at 2000 rpm for 40 sec, and incubated for 1 h at room temperature. Before reading, 10 μL detection buffer (Lance Detection Buffer 1×; EDTA: […]; Eu-Anti-P-MBP: see Table 3) was added. The FRET signal was measured at 340 nm excitation, 665 nm and 615 nm emission (for the kinase tracer and LanthaScreen Eu-AB, respectively) with an Envision spectrophotometer (Perkin Elmer, Waltham, Mass., USA) with 50 μs delay and 300 μs integration time. IC50 values were determined from the sigmoidal dose response curves with the software Quattro Workflow (Quattro GmbH, Munich, Germany).

The target in the next assay is T2, CDK4/CyclinD1 (Homo sapiens, UniProt P11802).
T2 construct: purchased Invitrogen
T2 sequence (P11802 whole entry): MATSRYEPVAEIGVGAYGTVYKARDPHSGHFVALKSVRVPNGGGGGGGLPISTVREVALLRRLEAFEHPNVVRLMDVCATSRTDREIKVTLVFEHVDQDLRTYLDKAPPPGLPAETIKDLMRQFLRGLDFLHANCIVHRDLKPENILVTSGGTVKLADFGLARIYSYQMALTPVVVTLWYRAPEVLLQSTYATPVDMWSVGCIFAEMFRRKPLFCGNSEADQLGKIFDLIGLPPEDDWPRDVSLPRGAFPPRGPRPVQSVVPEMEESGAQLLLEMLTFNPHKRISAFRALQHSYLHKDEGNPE
T2 sequence (P24385 whole entry partner): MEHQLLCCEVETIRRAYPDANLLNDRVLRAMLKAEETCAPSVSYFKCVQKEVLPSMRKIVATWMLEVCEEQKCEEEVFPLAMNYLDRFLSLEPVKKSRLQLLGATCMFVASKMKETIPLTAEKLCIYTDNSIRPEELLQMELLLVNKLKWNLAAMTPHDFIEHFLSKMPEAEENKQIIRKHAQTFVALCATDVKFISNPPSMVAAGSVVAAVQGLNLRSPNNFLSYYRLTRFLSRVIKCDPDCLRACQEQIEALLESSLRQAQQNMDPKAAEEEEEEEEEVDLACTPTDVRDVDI
Put plainly: Lance Ultra KinaSelect Assay, CDK4. The class given is biochemical. The note with it: ATP 90 μM, read-out: Inhibition (IC50) CDK4. As for the experimental part:
as §1, §2

The target in the next assay is T3, CDK2/CyclinA (Homo sapiens, UniProt P24941).
T3 construct: purchased Proqinase
Put plainly: Lance Ultra KinaSelect Assay, CDK2. The class given is biochemical. The note with it: ATP 3 μM, read-out: Inhibition (IC50) CDK2. The method, then: as §1, §2

A further assay addresses T4, CDK7/CyclinH/Mat1 (Homo sapiens, UniProt P50613).
T4 construct: purchased Carna Biosciences
Put plainly: Lance Ultra KinaSelect Assay, CDK7. In kind it is biochemical. The note with it: ATP 25 μM, read-out: Inhibition (IC50) CDK7. The method, then:
as §1, §2

The next assay addresses T5, CDK9 (Homo sapiens, UniProt P50750).
T5 construct: purchased Invitrogen
Put plainly: Lance Ultra KinaSelect Assay, CDK9. In kind it is biochemical. As to conditions: read-out: Inhibition (IC50) CDK9. The gist of the method:
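TR-FRET (Lance Ultra) detection of ULight-peptide phosphorylation by CDK/cyclin complexes using Eu-labelled anti-phospho antibody, in 50 mM HEPES pH 7.5, 10 mM MgCl2, 1 mM EGTA, 2 mM DTT, 0.01% Tween-20. Eight-point 1:3 dilutions, 1% DMSO, 1 h at room temperature; IC50 from sigmoidal dose-response curves.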

The subject of assay [1] is LPS-induced TNF alpha release in PBMCs. Put plainly: TNF alpha release assay. In kind it is cell-based. As to conditions: Homo sapiens, PBMC, 6 h, 1 μg/mL LPS. As for the experimental part: Freshly isolated peripheral blood mononuclear cells (PBMCs) were seeded in 96-well cell culture plates with 200,000 cells in 100 μl cell culture medium (DMEM cell culture medium+glutamine from PAN Biotech GmbH, Aidenbach, Germany) supplemented with 10% fetal calf serum (PAA Laboratories GmbH, Pasching, Austria) per well and incubated overnight at 37° C., 5% CO2. To each well, 100 μL cell culture medium with 2× concentrated test compounds diluted from 10 mM DMSO stocks, or 100 μL DMEM with 0.4% DMSO for control wells, was added. The compounds of general formula (I) summarized in Table 6 were used in this assay. After incubation for 1 h at 37° C., 5% CO2, cells were stimulated with 1 μg/mL LPS (Lipopolysaccharides, Sigma, catalog #L4391-1MG; 1 mg/ml stock solution), or left untreated for negative controls, and plates were incubated for 6 h at 37° C./5% CO2. The cell culture plates were centrifuged at 2000 rpm for 5 minutes, and supernatants were transferred to fresh 96-well polypropylene plates. 25 µL of supernatants were transferred into 96-well-plates of the human TNF alpha-tissue culture kit (Meso Scale Discovery, Gaithersburg, Md., USA), and manufacturer's instructions were followed for analysis of TNF alpha levels. Chemoluminescence was measured in the Mesoscale Sector Imager, and EC50 values were calculated with the software Excel Fit (IDBS, Guildford, UK) from 2-fold dilution series comprising at least 6 concentrations in duplicates.

Assay [2] deals with NF-kappaB reporter gene activation in HEK293 cells. Description: NF-kappaB reporter assay. In kind it is cell-based. As to conditions: Homo sapiens, 20 ng/ml TNF alpha, 5 h. An outline of the steps: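 HEK293 cells were nucleofected with an NF-κB luciferase reporter and, after 48 h, given compound in DMEM with 20 ng/ml TNFα for 5 h at 37 °C. Luminescence was read with Bright-Glo. EC50 came from 2-fold series of ≥10 concentrations run in duplicate.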
For orientation: In a reporter assay the amount or activity of a reporter protein is the signal.

T4 sequence (P50613 whole entry): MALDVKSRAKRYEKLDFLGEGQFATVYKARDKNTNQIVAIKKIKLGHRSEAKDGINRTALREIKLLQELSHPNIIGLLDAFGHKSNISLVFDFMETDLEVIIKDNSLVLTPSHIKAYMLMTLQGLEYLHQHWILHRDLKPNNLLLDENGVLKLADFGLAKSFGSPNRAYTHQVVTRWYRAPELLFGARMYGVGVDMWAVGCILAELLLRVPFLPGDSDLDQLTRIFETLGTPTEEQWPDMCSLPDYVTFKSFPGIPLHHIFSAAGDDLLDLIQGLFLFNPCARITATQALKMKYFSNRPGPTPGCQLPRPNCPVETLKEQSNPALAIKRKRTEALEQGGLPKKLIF
T4 sequence (P51946 whole entry partner): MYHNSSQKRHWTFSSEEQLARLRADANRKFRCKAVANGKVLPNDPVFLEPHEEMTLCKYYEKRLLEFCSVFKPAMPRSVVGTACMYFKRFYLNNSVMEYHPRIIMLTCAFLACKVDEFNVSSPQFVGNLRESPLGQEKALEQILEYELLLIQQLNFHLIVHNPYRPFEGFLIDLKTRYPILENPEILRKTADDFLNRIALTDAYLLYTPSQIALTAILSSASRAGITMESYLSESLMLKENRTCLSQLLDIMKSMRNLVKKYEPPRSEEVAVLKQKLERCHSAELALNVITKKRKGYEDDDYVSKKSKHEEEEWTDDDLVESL
T4 sequence (P51948 whole entry partner): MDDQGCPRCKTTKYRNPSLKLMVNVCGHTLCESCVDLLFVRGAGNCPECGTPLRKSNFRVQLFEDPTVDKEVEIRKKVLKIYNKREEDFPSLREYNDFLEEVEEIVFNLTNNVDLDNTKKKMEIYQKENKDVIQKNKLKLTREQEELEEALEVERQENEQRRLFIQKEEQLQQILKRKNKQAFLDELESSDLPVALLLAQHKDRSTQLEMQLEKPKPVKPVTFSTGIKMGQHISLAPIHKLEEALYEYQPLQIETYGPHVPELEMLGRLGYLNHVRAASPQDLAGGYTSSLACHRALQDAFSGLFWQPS
T1 sequence (Q00534 whole entry): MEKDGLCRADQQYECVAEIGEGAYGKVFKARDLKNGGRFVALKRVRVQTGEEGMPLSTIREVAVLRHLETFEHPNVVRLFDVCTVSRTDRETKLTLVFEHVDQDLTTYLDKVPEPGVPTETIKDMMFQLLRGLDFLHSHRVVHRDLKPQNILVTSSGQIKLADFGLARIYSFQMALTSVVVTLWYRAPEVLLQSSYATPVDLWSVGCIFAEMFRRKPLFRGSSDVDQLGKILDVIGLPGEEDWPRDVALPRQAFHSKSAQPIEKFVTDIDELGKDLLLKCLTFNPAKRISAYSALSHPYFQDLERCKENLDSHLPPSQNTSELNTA
T1 sequence (P30281 whole entry partner): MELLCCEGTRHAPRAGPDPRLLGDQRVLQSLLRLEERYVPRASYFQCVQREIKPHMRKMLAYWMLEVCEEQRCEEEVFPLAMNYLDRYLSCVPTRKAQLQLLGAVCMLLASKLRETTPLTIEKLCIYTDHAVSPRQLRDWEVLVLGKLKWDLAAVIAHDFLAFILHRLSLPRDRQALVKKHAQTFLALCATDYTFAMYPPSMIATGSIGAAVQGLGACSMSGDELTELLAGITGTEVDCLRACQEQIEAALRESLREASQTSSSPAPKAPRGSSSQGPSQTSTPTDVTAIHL
T5 sequence (P50750 whole entry): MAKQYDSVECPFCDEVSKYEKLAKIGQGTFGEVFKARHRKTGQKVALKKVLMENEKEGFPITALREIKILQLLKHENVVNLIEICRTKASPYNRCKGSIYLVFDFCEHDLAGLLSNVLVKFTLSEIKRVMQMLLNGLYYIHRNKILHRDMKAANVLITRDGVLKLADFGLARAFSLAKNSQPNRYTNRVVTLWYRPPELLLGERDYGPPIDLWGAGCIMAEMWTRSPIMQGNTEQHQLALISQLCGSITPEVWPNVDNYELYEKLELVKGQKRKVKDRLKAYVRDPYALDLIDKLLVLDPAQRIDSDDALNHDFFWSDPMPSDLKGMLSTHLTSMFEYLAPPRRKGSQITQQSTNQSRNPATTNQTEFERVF

As a reminder, the IC50 is the concentration needed to halve the response being measured. In the case of `CCCS(=O)(=O)Nc1cccc(Nc2ncnc(-c3ccccc3OC)n2)c1` [Compound L1, N-[3-((4-(2-Methoxyphenyl)-1,3,5-triazin-2-yl)amino)phenyl]-propanesulfonamide], the IC50 is above 10 µM at CDK6/CyclinD3; above 10 µM at CDK4/CyclinD1; above 10 µM at CDK2/CyclinA; above 10 µM at CDK7/CyclinH/Mat1; 0.111 µM at CDK9; 2.41 µM in assay [1]. In assay [2], this molecule came in with an IC50 of 6.53 µM.
Consider `COc1ccccc1-c1ncnc(Nc2cccc(CS(N)(=O)=O)c2)n1` [B1′, 3-[(4-(2-Methoxyphenyl)-1,3,5-triazin-2-yl)amino]benzenemethanesulfonamide trifluoroacetic acid salt], for which the IC50 was above 10 µM on CDK6/CyclinD3; above 10 µM at CDK4/CyclinD1; 3.08 µM at CDK2/CyclinA; above 10 µM on CDK7/CyclinH/Mat1; 0.0965 µM at CDK9; 2.71 µM in assay [1]. Moreover, half-maximal inhibition in assay [2] (IC50) was put at 3.56 µM.
Turning to `COc1ccccc1-c1ncnc(Nc2cccc(CCS(N)(=O)=O)c2)n1` [Compound D1, 2-[3-((4-(2-Methoxyphenyl)-1,3,5-triazin-2-yl)amino)phenyl]ethanesulfonamide], the IC50 was above 10 µM at CDK6/CyclinD3; 9.32 µM at CDK4/CyclinD1; 0.515 µM at CDK2/CyclinA; above 10 µM on CDK7/CyclinH/Mat1; 0.139 µM on CDK9; 5.37 µM in assay [1]. Besides, in assay [2], the IC50 was 4.98 µM.
In the case of `COc1ccccc1-c1ncnc(Nc2cccc(S(N)(=O)=O)c2)n1` [C1′, 3-[(4-(2-Methoxyphenyl)-1,3,5-triazin-2-yl)amino]benzenesulfonamide trifluoroacetic acid salt], the IC50 was above 10 µM on CDK6/CyclinD3; 1.51 µM at CDK4/CyclinD1; 0.781 µM at CDK2/CyclinA; above 10 µM on CDK7/CyclinH/Mat1; 0.0207 µM on CDK9; 0.5 µM in assay [1]. Further, the IC50 in assay [2] worked out at 1.47 µM.
As for `COc1cccc(F)c1-c1ncnc(Nc2cccc(CS(N)(=O)=O)c2)n1` [Compound B4, 3-[(4-(6-Fluoro-2-methoxyphenyl)-1,3,5-triazin-2-yl)amino]benzenemethanesulfonamide], the half-inhibitory concentration (IC50) at CDK6/CyclinD3 was above 10 µM; at CDK4/CyclinD1, above 10 µM; at CDK2/CyclinA it was 1.44 µM; at CDK7/CyclinH/Mat1, above 10 µM; at CDK9, 0.201 µM; in assay [1], 6.53 µM. The molecule further yielded an IC50 in assay [2] of 9.71 µM.
